Test results from BindingDB's records for doi:10.1124/jpet.102.044826 (Taisho Pharmaceutical, 2003).

Legend:
[1] = molecular target: T1, Alpha-2C adrenergic receptor (Homo sapiens, UniProt P18825)
T1 sequence (P18825 whole entry): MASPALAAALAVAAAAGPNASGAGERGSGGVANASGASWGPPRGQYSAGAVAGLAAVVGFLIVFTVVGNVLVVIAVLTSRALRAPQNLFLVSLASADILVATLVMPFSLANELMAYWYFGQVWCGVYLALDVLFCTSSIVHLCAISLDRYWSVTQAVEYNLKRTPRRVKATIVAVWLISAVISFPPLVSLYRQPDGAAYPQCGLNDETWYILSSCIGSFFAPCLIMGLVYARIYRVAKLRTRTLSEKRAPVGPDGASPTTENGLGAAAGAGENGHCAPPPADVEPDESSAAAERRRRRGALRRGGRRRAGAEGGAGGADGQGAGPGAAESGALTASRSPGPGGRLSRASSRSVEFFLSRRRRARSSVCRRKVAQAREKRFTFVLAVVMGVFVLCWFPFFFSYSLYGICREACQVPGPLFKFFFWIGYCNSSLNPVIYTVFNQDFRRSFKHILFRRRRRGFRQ

[2] = molecular target: T2, Alpha-1A adrenergic receptor (Rattus norvegicus, UniProt P43140)
T2 sequence (P43140 whole entry): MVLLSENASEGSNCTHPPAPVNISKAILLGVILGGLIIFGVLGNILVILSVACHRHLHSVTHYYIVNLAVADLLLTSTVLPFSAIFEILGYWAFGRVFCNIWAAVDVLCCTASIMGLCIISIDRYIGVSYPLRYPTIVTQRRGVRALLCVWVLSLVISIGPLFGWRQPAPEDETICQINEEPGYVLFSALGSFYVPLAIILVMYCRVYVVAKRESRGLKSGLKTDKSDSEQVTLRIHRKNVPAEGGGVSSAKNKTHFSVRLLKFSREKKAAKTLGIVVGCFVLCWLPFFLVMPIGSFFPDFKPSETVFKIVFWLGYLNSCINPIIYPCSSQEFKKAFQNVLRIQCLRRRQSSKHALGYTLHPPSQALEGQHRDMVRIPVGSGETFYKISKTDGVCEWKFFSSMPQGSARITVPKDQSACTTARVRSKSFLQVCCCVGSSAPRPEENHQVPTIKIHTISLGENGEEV

IC50 [1]: 1 µM
IC50 [2]: 0.63 µM
Compound: COc1ccc2ccccc2c1CCCCN1CCN(C[C@H](c2ccc(F)cc2)N2CCN(C(C)C)CC2)CC1 [MCL0129]
